The first test deals with CBP (Homo sapiens (Human), UniProt Q92793). Nature of the test: In vitro CBP inhibition (AlphaScreen, biotinylated H4-tetraacetyl peptide). It is filed as binding.
Sequence of CBP (Q92793 1081-1197): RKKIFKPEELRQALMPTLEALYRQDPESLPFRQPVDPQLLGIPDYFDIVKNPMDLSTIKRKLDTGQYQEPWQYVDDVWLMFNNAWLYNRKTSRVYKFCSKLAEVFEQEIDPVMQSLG
Details: not given
As to the method:
The CBP-inhibitory activity of the compounds described herein was determined by calculating the IC50. More specifically, CBP inhibitor activity was assayed as follows: CBP was cloned and expressed in E. coli as His-tag protein and purified by Nickel affinity and gel-filtration chromatography. […] CBP binding and inhibition is assessed by monitoring the interaction of biotinylated H4-tetraacetyl peptide (AnaSpec, H4K5/8/12/16(Ac), biotin-labeled) with the target using the AlphaScreen technology (Perkin Elmer). In a 384-well ProxiPlate CBP (50 nM final) was combined with peptide (20 nM final) in 50 mM HEPES (pH 7.3), 10 mM NaCl, 0.25 mM TCEP, 0.1% (w/v) BSA, and 0.005% (w/v) Brij-35 either in the presence of DMSO (final 0.4% DMSO) or compound dilution series in DMSO. After 20 min incubation at room temp, Alpha-streptavidin donor beads and Nickel Chelate acceptor beads were added to a final concentration of 5 μg/mL.
The ability of the compounds disclosed herein to inhibit CBP activity was quantified and the respective IC50 value determined.
Consider `Cn1cc(-c2cnn(Cc3ccccc3)c2)ccc1=O` [Example 1, 5-(1-benzyl-1H-pyrazol-4-yl)-1-methylpyridin-2(1H)-one], for which the IC50 was in the range of 500 to 5000 nM.

The same test, now with this note: AlphaScreen, Table 29; read-out: CBP IC50.
As for `CCOc1cc(=O)n(C)cc1-c1cnn(-c2ccccn2)c1` [Example 253, 4-ethoxy-1-methyl-5-(1-(pyridin-2-yl)-1H-pyrazol-4-yl)pyridin-2(1H)-one], the IC50 is less than 500 nM.

Consider `CC(C)NC(=O)c1ccn(-c2cc(=O)n(C)cc2-c2cnn(Cc3ccccc3)c2)c1` [Example 82, 1-(5-(1-benzyl-1H-pyrazol-4-yl)-1-methyl-2-oxo-1,2-dihydropyridin-4-yl)-N-isopropyl-1H-pyrrole-3-carboxamide], for which the IC50 was less than 500 nM.

Consider `Cn1cc(-c2cnn(Cc3ccccc3)c2)c(N2CCCC2)cc1=O` [Example 87, 5-(1-benzyl-1H-pyrazol-4-yl)-1-methyl-4-pyrrolidin-1-yl-1H-pyridin-2-one], for which the IC50 was less than 500 nM.

Take `Cn1cc(-c2cnn(-c3ccccc3C#N)c2)c(-c2ccc(C(N)=O)cc2)cc1=O` [Example 218, 4-{5-[1-(2-Cyano-phenyl)-1H-pyrazol-4-yl]-1-methyl-2-oxo-1,2-dihydro-pyridin-4-yl}-benzamide]: the IC50 is less than 500 nM.

For the molecule `Cn1cc(-c2cnn(-c3cccc(Cl)c3C#N)c2)c(-c2cnc(NC3CCCC3)nc2)cc1=O` [Example 329, 2-chloro-6-(4-(4-(2-(cyclopentylamino)pyrimidin-5-yl)-1-methyl-6-oxo-1,6-dihydropyridin-3-yl)-1H-pyrazol-1-yl)benzonitrile], the IC50 is less than 500 nM.

On to `Cn1cc(-c2cnn(Cc3ccccc3)c2)c(N2CC[C@@H](NS(=O)(=O)C(F)(F)F)C2)cc1=O` [Example 173, (R)-N-(1-(5-(1-benzyl-1H-pyrazol-4-yl)-1-methyl-2-oxo-1,2-dihydropyridin-4-yl)pyrrolidin-3-yl)-1,1,1-trifluoromethanesulfonamide], for which the IC50 was 500 to 5000 nM.

In the case of `CCOc1cc(=O)n(C)cc1-c1cnn(Cc2cccc(C(=O)OC)c2)c1` [Example 71, methyl 3-((4-(4-ethoxy-1-methyl-6-oxo-1,6-dihydropyridin-3-yl)-1H-pyrazol-1-yl)methyl)benzoate], the half-inhibitory concentration (IC50) is less than 500 nM.

In the case of `CCOc1cc(=O)n(C)cc1-c1cnn(-c2cccc(C#N)c2)c1` [Example 251, 3-(4-(4-ethoxy-1-methyl-6-oxo-1,6-dihydropyridin-3-yl)-1H-pyrazol-1-yl)benzonitrile], the IC50 was less than 500 nM.

Consider `CC(c1ccccc1)n1cc(-c2cn(C)c(=O)cc2OC2CC2)cn1` (centres unmarked) [Example 59, 4-cyclopropoxy-1-methyl-5-(1-(1-phenylethyl)-1H-pyrazol-4-yl) pyridin-2(1H)-one], for which the IC50 is less than 500 nM.

As for `Cc1ccc(-c2cc(=O)n(C)cc2-c2cnn(Cc3ccccc3)c2)cc1` [Example 112, 5-(1-benzyl-1H-pyrazol-4-yl)-1-methyl-4-(p-tolyl)pyridin-2(1H)-one], the IC50 is less than 500 nM.

Consider `Cn1cc(-c2cnn(Cc3ccccc3)c2)c(-c2ccc(F)cc2)cc1=O` [Example 149, 5-(1-benzyl-1H-pyrazol-4-yl)-4-(4-fluorophenyl)-1-methyl-pyridin-2(1H)-one], for which the IC50 is less than 500 nM.

As to `COC(=O)c1ccn(-c2cc(=O)n(C)cc2-c2cnn(Cc3ccccc3)c2)c1` [Example 77, methyl 1-(5-(1-benzyl-1H-pyrazol-4-yl)-1-methyl-2-oxo-1,2-dihydro-pyridin-4-yl)-1H-pyrrole-3-carboxylate], the IC50 is less than 500 nM.

Take `CCOc1ccc(-c2cc(=O)n(C)cc2-c2cnn(-c3cccc(F)c3C#N)c2)cn1` [Example 359, 2-(4-(6-ethoxy-1′-methyl-6′-oxo-1′,6′-dihydro-[3,4′-bipyridin]-3′-yl)-1H-pyrazol-1-yl)-6-fluorobenzonitrile]: the IC50 was less than 500 nM.

With `Cn1cc(-c2cnc(-c3ccccc3)o2)c(-c2ccccc2)cc1=O` [Example 397, 1-methyl-4-phenyl-5-(2-phenyloxazol-5-yl)pyridin-2(1H)-one], the IC50 was in the range of 500 to 5000 nM.

On to `CN(C)c1ncc(-c2cc(=O)n(C)cc2-c2cnn(-c3cccc(F)c3C#N)c2)cn1` [Example 334, 2-[4-[4-[2-(dimethylamino)pyrimidin-5-yl]-1-methyl-6-oxo-3-pyridyl]pyrazol-1-yl]-6-fluoro-benzonitrile], for which the concentration for half-maximal inhibition (IC50) was less than 500 nM.

As for `CCc1ccc(-c2cc(=O)n(C)cc2-c2cnn(-c3cccc(Cl)c3C#N)c2)cn1` [Example 371, 2-chloro-6-(4-(6-ethyl-1′-methyl-6′-oxo-1′,6′-dihydro-[3,4′-bipyridin]-3′-yl)-1H-pyrazol-1-yl)benzonitrile], the IC50 was less than 500 nM.

Turning to `CC(c1ccccc1)n1cc(-c2cn(C)c(=O)cc2Cl)cn1` (centres unmarked) [Example 38, 4-chloro-1-methyl-5-(1-(1-phenyl-ethyl)-1H-pyrazol-4-yl) pyridin-2(1H)-one], the IC50 is less than 500 nM.

Turning to `Cn1cc(-c2cnn(-c3cccc(F)c3C#N)c2)c(-c2ccc(NC3CCCC3)nc2)cc1=O` [Example 343, 2-(4-(6-(cyclopentylamino)-1′-methyl-6′-oxo-1′,6′-dihydro-[3,4′-bipyridin]-3′-yl)-1H-pyrazol-1-yl)-6-fluorobenzonitrile], the IC50 was less than 500 nM.

Regarding `CCOc1cc(=O)n(C)cc1-c1cnn(CC2CC2(F)F)c1` (centres unmarked) [Example 171, 5-[1-(2,2-Difluoro-cyclopropylmethyl)-1H-pyrazol-4-yl]-4-ethoxy-1-methyl-1H-pyridin-2-one], the IC50 is less than 500 nM.

For the molecule `Cn1cc(-c2cnn(-c3ccccc3C(=O)NC#N)c2)c(-c2ccc(F)cc2)cc1=O` [Example 288, N-cyano-2-(4-(4-(4-fluorophenyl)-1-methyl-6-oxo-1,6-dihydropyridin-3-yl)-1H-pyrazol-1-yl)benzamide], the 50% inhibitory concentration (IC50) is less than 500 nM.

For `COC1CN(c2cc(=O)n(C)cc2-c2cnn(C(C)c3ccccc3)c2)C1` (centres unmarked) [Example 58, 4-(3-methoxyazetidin-1-yl)-1-methyl-5-(1-(1-phenylethyl)-1H-pyrazol-4-yl)pyridin-2(1H)-one], the IC50 fell in the range of 500 to 5000 nM.

`CC(C)Oc1cc(=O)n(C)cc1-c1cnn(-c2ccccc2C#N)c1` [Example 202, 2-[4-(4-Isopropoxy-1-methyl-6-oxo-1,6-dihydro-pyridin-3-yl)-pyrazol-1-yl]-benzonitrile]: the IC50 is less than 500 nM.

As to `CC(=O)N[C@@H]1CCN(c2cc(=O)n(C)cc2-c2cnn(Cc3ccccc3)c2)C1` [Example 72, (R)-N-(1-(5-(1-benzyl-1H-pyrazol-4-yl)-1-methyl-2-oxo-1,2-dihydropyridin-4-yl)pyrrolidin-3-yl)acctamide], the IC50 was 500 to 5000 nM.

Turning to `CC(c1ccncc1)n1cc(-c2ccc(=O)n(C)c2)cn1` (centres unmarked) [Example 29, 1-methyl-5-(1-(1-(pyridin-4-yl)ethyl)-1H-pyrazol-4-yl)pyridin-2(1H)-one], the IC50 was 500 to 5000 nM.

`CC(c1ccccc1)n1cc(-c2cn(C)c(=O)cc2OCc2ccccc2)cn1` (centres unmarked) [Example 56, 4-(benzyloxy)-1-methyl-5-(1-(1-phenylethyl)-1H-pyrazol-4-yl) pyridin-2(1H)-one]: the IC50 is less than 500 nM.

Regarding `CCOc1cc(=O)n(C)cc1-c1cnn(-c2cc(Oc3ccccc3)ccc2C#N)c1` [Example 183, 2-[4-(4-Ethoxy-1-methyl-6-oxo-1,6-dihydro-pyridin-3-yl)-pyrazol-1-yl]-4-phenoxy-benzonitrile], the IC50 was less than 500 nM.

For `Cn1cc(-c2cnn(Cc3ccccc3)c2)c(N)cc1=O` [Example 200, 4-amino-5-(1-benzyl-1H-pyrazol-4-yl)-1-methylpyridin-2(1H)-one], the half-inhibitory concentration (IC50) fell in the range of 500 to 5000 nM.

Consider `CCc1cc(-c2cnn(-c3ccccc3C#N)c2)cn(C)c1=O` [Example 256, 2-[4-(5-Ethyl-1-methyl-6-oxo-1,6-dihydro-pyridin-3-yl)-pyrazol-1-yl]-benzonitrile], for which the IC50 is less than 500 nM.

On to `Cn1cc(-c2cnn(-c3ccccc3C(=O)NS(C)(=O)=O)c2)c(C2CC2)cc1=O` [Example 302, N-{2-[4-(4-Cyclopropyl-1-methyl-6-oxo-1,6-dihydro-pyridin-3-yl)-pyrazol-1-yl]-benzoyl}-methanesulfonamide], for which the 50% inhibitory concentration (IC50) is less than 500 nM.

Consider `Cn1cc(-c2cnn(-c3cccc(Cl)c3C#N)c2)c(-c2ccc(OC3CCCC3)nc2)cc1=O` [Example 352, 2-chloro-6-[4-[4-[6-(cyclopentoxy)-3-pyridyl]-1-methyl-6-oxo-3-pyridyl]pyrazol-1-yl]benzonitrile], for which the IC50 was less than 500 nM.

Consider `Cn1cc(-c2cnn(-c3cccc(Cl)c3C#N)c2)c(-c2cnc(NC3CC3)nc2)cc1=O` [Example 322, 2-chloro-6-[4-[4-[2-(cyclopropylamino)pyrimidin-5-yl]-1-methyl-6-oxo-3-pyridyl]pyrazol-1-yl]benzonitrile], for which the 50% inhibitory concentration (IC50) was less than 500 nM.

For `CC(c1ccccc1)n1cc(-c2cn(C)c(=O)cc2OC2CCCC2)cn1` (centres unmarked) [Example 51, 4-(cyclopentyloxy)-1-methyl-5-(1-(1-phenylethyl)-1H-pyrazol-4-yl) pyridin-2(1H)-one], the IC50 is less than 500 nM.

On to `Cn1nccc1-c1cc(=O)n(C)cc1-c1cnn(Cc2ccccc2)c1` [Example 110, 5-(1-benzyl-1H-pyrazol-4-yl)-1-methyl-4-(1-methyl-1H-pyrazol-5-yl)pyridin-2(1H)-one], for which the half-inhibitory concentration (IC50) fell in the range of 500 to 5000 nM.

Take `Cc1c(-c2cnn(C(C)c3ccccc3)c2)cn(C)c(=O)c1C` (centres unmarked) [Example 30, 1,3,4-trimethyl-5-(1-(1-phenylethyl)-1H-pyrazol-4-yl)pyridin-2(1H)-one]: the IC50 is less than 500 nM.
